From patent publication US20160058829A1, “ANTI-FIBROTIC PEPTIDES AND THEIR USE IN METHODS FOR TREATING DISEASES AND DISORDERS CHARACTERIZED BY FIBROSIS” (Thrasos Innovation, Inc., priority 2011, published 2016) come the findings set out here.

This assay deals with Alk-3 deleted mice and littermate control mice, IRI. The assay is described as follows: IRI in Alk-3 deleted (γGT-Cre; Alk3 flox/flox) and control mice. It counts as in vivo. As to conditions: for renal injury (tubular necrosis), IRI: THR-123 orally 5 mg/kg/day. Here is the method:
FIG. 76A-FIG. 76T THR-123 acts on tubule Alk3 as a receptor in kidney disease models. FIG. 76A-FIG. 76D, The effect of THR-123 on the IRI model kidney injury in Alk3^flox/flox and […]GTCre; Alk3^flox/flox mice. After ischemia reperfusion injury the mice were given THR-123 orally (5 mg/kg/day) till the day of sacrifice. FIG. 76A-FIG. 76C, the representative H&E staining picture of indicated group of mice are shown. FIG. 76D. Percentage renal tubular necrosis in IRI. Ten fields in each group were analyzed. Data are shown as mean±s.e.m. in the graph. FIG. 76E-FIG. 76T, The effect of THR-123 on the NTN model kidney injury in Alk3^flox/flox and gGTCre; Alk3^flox/flox mice. Six weeks after NTN was introduced in the indicated groups of mice, mice were treated with PBS or THR-123 orally. FIG. 76E-FIG. 76H, the representative MTS staining picture of indicated group of mice are shown. FIG. 76I, Morphometric analyses from 9 weeks of NTN models in indicated groups. FIG. 76J-FIG. 76N, Macrophage accumulation analysis in the kidney of NTN model in Alk3^flox/flox and gGTCre; Alk3^flox/flox mice. FIG. 76J-FIG. 76M, Mac-1 immunofluorescence study of indicated groups of mice. FIG. 76N, The number of macrophages per field of view (×400 magnification) was assessed by counting positively labeled cells in 5 random fields of view per slide, with 5 slides per experimental group. Data are shown as mean±s.e.m. in the graph. FIG. 76O-FIG. 76S, EMT analysis, FIG. 76O-FIG. 76R, E-cadherin/FSP1 immunolabeling of kidney in NTN-induced Alk3^flox/flox and GTCre; Alk3^flox/flox mice treated with either PBS or THR-123. FIG. 76S. Percent of E-cadherin/FSP1 double positive tubule. 500 tubules per slide, 5 slides per experimental group were analyzed. Data are expressed as mean±s.e.m. in the graph. FIG. 76T, Blood urea nitrogen measurement in 6 and 9 weeks of NTN in indicated groups of mice (all n=4).
Ischemia reperfusion injury (IRI) was induced by clamping of the left renal pedicle for 25 minutes. After ischemia reperfusion injury the mice were given THR-123 orally (5 mg/kg/day) or PBS till the day of sacrifice. FIG. 77A-FIG. 77C. Mac-1 immunofluorescence studies in the indicated groups. FIG. 77D. The number of macrophages per field of view (×400 magnification) was assessed by counting positively labeled cells in 5 random fields of view per slide, with 5 slides per experimental group.
Ischemia reperfusion injury (IRI) was induced by clamping of the left renal pedicle for 25 minutes. After ischemia reperfusion injury the mice were given THR-123 orally (5 mg/kg/day) or PBS till the day of sacrifice. FIG. 78A-FIG. 78C. Tubule cell apoptosis was analyzed in frozen kidney sections of indicated groups of animals by TUNEL staining. FIG. 78D. Quantification of TUNEL positive tubule cells. The number of TUNEL positive tubules per field of view (×200 magnification) was assessed by counting positively labeled cells in 5 random fields of view per slide, with 5 slides per experimental group.
THR-123 binds to Alk-3 receptor and induced actions that mimic BMP7 (vide supra). […] To functionally validate the target of THR-123 in exerting such reno-protective activity in mice, the efficacy of THR-123 in the Alk-3 deleted mice subjected to renal injury was tested (FIG. 42 K). The Alk-3 deleted mice and their littermate (control) mice were subjected to IRI.
Alk-3 flox mice are provided by Dr. Yuji Mishina, National Institutes of Health with material transfer agreements. γGT-Cre mice are provided from Dr. Eric Neilson, Vanderbilt University Medical Center. NTN is induced by the method described above.

Positions of bridges follow the written chain, without caps; N, C: chain ends.

Regarding “(H)-CYFDDSSNVLCKKYRS-(OH) (H-CYFDDSSNVLCKKYRS-OH; disulfide 1-11; SMILES CC(C)C[C@@H]1NC(=O)[C@H](C(C)C)NC(=O)[C@H](CC(N)=O)NC(=O)[C@H](CO)NC(=O)[C@H](CO)NC(=O)[C@H](CC(=O)O)NC(=O)[C@H](CC(=O)O)NC(=O)[C@H](Cc2ccccc2)NC(=O)[C@H](Cc2ccc(O)cc2)NC(=O)[C@@H](N)CSSC[C@@H](C(=O)N[C@@H](CCCCN)C(=O)N[C@@H](CCCCN)C(=O)N[C@@H](Cc2ccc(O)cc2)C(=O)N[C@@H](CCCNC(=N)N)C(=O)N[C@@H](CO)C(=O)O)NC1=O) [SEQ ID NO: 1]”, for the setting “Alk-3 deleted mice”, the “macrophage accumulation, IRI” value is listed as “does not inhibit macrophage accumulation”; the “tubular apoptosis, IRI” value is reported as “does not inhibit apoptosis”; the “renal injury (tubular necrosis), IRI” value is reported as “does not exhibit therapeutic effect”. Moreover, under “control mice”, the “macrophage accumulation, IRI” value was “reduction in macrophage accumulation”; the “tubular apoptosis, IRI” value is given as “decreased tubular apoptosis”; the “renal injury (tubular necrosis), IRI” value was “inhibited renal injury”.
